Legend:
[1] = Pharmacokinetics of 5-MeO-DMT and bufotenine after inhalation of 5-MeO-DMT in subjects; format: in vivo, human
5-HT1A receptors = target: T1, 5-HT1A receptors (Homo sapiens, UniProt P08908); experiment: Radioligand binding ([3H]8-OH-DPAT) to 5-HT1A receptors in post-mortem human hippocampus membranes
T1 construct: 5-HT1A and 5-HT2A receptors in post-mortem human brain tissue from the hippocampus and frontal cortex, respectively; tissue Edinburgh Sudden Death Brain Bank; host or cells: post-mortem human hippocampus membranes
T1 sequence (P08908 1-422): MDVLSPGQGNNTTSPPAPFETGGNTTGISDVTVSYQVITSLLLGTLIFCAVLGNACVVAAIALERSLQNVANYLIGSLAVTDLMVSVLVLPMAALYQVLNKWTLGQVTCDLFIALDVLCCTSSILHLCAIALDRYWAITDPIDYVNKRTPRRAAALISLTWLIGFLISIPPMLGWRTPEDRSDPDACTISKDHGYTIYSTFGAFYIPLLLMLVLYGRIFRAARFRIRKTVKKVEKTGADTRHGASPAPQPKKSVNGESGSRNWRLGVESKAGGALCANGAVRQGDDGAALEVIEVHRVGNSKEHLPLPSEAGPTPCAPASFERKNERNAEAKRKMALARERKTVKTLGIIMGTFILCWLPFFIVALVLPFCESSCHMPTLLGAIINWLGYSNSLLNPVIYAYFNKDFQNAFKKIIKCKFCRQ

5-HT2A receptors = target: T2, 5-HT2A receptors (Homo sapiens, UniProt P28223); experiment: Radioligand binding ([3H]MDL-100,907) to 5-HT2A receptors in post-mortem human frontal cortex membranes
T2 construct: 5-HT1A and 5-HT2A receptors in post-mortem human brain tissue from the hippocampus and frontal cortex, respectively; tissue Edinburgh Sudden Death Brain Bank; host or cells: post-mortem human frontal cortex membranes
T2 sequence (P28223 whole entry): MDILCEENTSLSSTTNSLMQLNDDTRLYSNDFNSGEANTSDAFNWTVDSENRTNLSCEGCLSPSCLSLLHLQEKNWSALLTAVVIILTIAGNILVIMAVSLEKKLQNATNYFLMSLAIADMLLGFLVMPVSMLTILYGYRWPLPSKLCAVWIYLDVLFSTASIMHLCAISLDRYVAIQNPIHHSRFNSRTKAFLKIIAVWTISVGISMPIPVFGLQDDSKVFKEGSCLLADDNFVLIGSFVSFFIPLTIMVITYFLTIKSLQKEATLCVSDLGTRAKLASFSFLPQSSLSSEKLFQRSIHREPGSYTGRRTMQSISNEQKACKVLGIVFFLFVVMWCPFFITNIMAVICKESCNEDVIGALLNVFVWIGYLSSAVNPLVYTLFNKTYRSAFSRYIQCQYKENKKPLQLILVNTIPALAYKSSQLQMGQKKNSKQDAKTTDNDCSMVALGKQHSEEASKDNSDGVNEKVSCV

SMILES	bufotenine blood concentration above LLOQ (25 pg/ml) ([1]; metabolite after inhaled 5-MeO-DMT)	bufotenine observations when uptitration subjects were included ([1]; uptitration scheme)	affinity for 5-HT1A receptors (in words) (5-HT1A receptors)	affinity for 5-HT2A receptors (in words) (5-HT2A receptors)
CN(C)CCc1c[nH]c2ccc(O)cc12 [bufotenine]	Only in few samples	Substantially similar observations		
CN(C)CCc1c[nH]c2cccc(O)c12 [psilocin]			moderate affinity	moderate/strong affinity
CN(C)CCc1c[nH]c2ccccc12 [DMT, N,N-dimethyltryptamine]			moderate affinity	comparatively weak affinity
